From paper PMC10480161, “Identification of potent and selective N-myristoyltransferase inhibitors of Plasmodium vivax liver stage hypnozoites and schizonts” (Nature Communications, 2023)
pIC50: −log10 of the molar value. Values joined by “and” are separate entries in the source; they are usually repeats but may differ in a detail not shown here. Equal entries are not always repeated.

Key:
HepG2 cells = experiment: HepG2 cytotoxicity assay (Live/Dead staining); details: replicates
Protocol: Therefore, we assessed cytotoxicity in the human hepatoma HepG2 cell line. We required a PvNMT to HsNMT SI > 20 for further screening. HepG2 cells were exposed to the compounds at concentrations ranging from 1 to 20 µM for […], and toxicity was assessed via live-dead staining.
The viability of the HepG2 cell line following exposure to the compounds was determined by a Live/Dead cell assay kit (Invitrogen). Briefly, cells were added to a 96-well plate at a concentration of 5000 cells per well, excluding the exterior wells. Cells were exposed to the compounds at different concentrations ranging from 1 to 20 µM. Cells were washed every 24 h and supplemented with fresh doses of compounds. At 72 h post-treatment, 1 µM calcein-AM and 1 µM ethidium homodimer were added to the wells and incubated for 10 min at 37 °C. After washing with PBS, the cells were visualized with fluorescent microscopy (Keyence BZ-X700).

PvNMT = PvNMT (Plasmodium vivax, UniProt A5K1A2); experiment: NMT activity assay (CPM detection of free CoA), PvNMT; details: for pIC50: PvNMT IC50, mean of two or more determinations; for SI: enzyme selectivity, HsNMT IC50/PvNMT IC50
P. vivax schizonts = experiment: P. vivax liver stage assay, schizonts; type: cell-based, Plasmodium vivax; details: for Number of liverstage Schizonts per well: 20 µM, 8 dpi; for pIC50: Plasmodium vivax, Hepatocyte, 120 h, primary human hepatocytes, treatment day 5 to 8 post-infection, isolates 2 and 3
Protocol: We next evaluated the candidate compounds against liver-stage P. vivax (Fig. 5). P. vivax sporozoites were obtained from three independent patient isolates and cultured in primary human hepatocytes from a single donor lot using a 384-well microculture system as described previously. Cells were infected and treated with NMTis at 20 µM beginning day 5 post-infection until day 8 when the infection rates were quantified by fluorescent microscopy.
Accordingly, we applied dose–response curves of all the tested NMTs on parasite isolates 2 and 3 over concentrations up to 20 µM (Fig. 5c, d, Source Data file). We observed similar kinetics for all inhibitors, with a gradual decrease in parasite load upon increasing the drug concentration. […] Nuclei were counted in each well using DAPI staining as a measure of toxicity (Supplementary Fig. 86, Supplementary Source data). We used the phosphatidylinositol 4-kinase inhibitor (PI4Ki), MMV390048, as a positive control for eliminating schizonts[37],[38].
(§1) Plasmodium vivax liver stage assays were performed as described previously. Cryopreserved primary human hepatocytes (Cat No. F00995-P) and hepatocyte culture medium (HCM) (InVitroGroTM CP Medium) were obtained from Bioreclamation IVT, Inc., (Baltimore, MD, USA). Briefly, we seeded 384-well plates with primary hepatocytes from a single donor lot at a density of 25,000 cells per well. We then infected the hepatocytes with 14,000 freshly hand-dissected sporozoites per well. Cells were exposed to the compounds at indicated concentrations from day 5 post-infection. We used Pi4K inhibitor MMV390048, at 20 µM, as a positive control to eliminate P. vivax liver schizonts. We then proceeded to feed cultures every day, replacing the compounds until day 8 post-infection. Cells were fixed with 4% PFA, permeabilized with 1% Triton X-100, blocked with 2% BSA, and stained with DAPI and PvUIS4 antibodies to detect schizonts and hypnozoites forms by confocal microscopy. For antibody dilutions, PvUIS4 (kind gift from Dr. Noah Sather, Seattle Children’s Research Institute) was diluted 1:250 and the secondary antibody was anti-mouse AlexaFluor-594 (Cat # A-11005; RRID: AB_2534073) diluted 1:1000. DAPI was diluted 1:2000. The images were processed, analyzed and outlier cells were removed using IMARIS (Bitplane Inc.) image analysis software.

P. vivax hypnozoites = experiment: P. vivax liver stage assay, hypnozoites; type: cell-based, Plasmodium vivax; details: for Hypnozoites per well: Isolate 2, replicate wells (Figure 6d); for Number of liverstage hypnozoites per well: 8 dpi; for pIC50: Hepatocyte, 120 h, primary human hepatocytes, treatment day 5 to 8 post-infection, isolate 2
Protocol: Finally, we evaluated the NMT-binding compounds against non-developing P. vivax hypnozoites. […] (Fig. 6A). […] We, therefore, evaluated the impact of all tested compounds on P. vivax hypnozoites using these two isolates.
as §1

HsNMT1 = molecular target: T1, HsNMT1 (Homo sapiens, UniProt P30419); experiment: NMT activity assay (CPM detection of free CoA), HsNMT
T1 sequence (P30419 1-496): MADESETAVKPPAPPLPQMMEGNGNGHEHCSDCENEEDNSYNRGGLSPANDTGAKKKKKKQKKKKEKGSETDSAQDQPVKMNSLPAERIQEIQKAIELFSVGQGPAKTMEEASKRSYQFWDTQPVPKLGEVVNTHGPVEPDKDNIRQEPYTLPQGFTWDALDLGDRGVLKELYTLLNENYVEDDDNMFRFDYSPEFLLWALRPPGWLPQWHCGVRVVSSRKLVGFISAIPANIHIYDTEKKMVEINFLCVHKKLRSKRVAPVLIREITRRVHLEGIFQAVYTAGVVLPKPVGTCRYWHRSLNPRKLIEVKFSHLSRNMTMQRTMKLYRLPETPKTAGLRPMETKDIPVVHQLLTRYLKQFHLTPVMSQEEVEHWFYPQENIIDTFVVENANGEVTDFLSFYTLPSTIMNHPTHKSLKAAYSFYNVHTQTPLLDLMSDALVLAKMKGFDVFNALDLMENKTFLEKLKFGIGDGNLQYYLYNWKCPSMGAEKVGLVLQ

[1] = isolate 1, technical replicates (Fig. 5b)
[2] = isolate 2, technical replicates (Fig. 5b)
[3] = isolate 3, technical replicates (Fig. 5b)
[4] = 20 µM, isolate 1, technical replicates (Fig. 6C)
[5] = 20 µM, isolate 2, technical replicates (Fig. 6C)
[6] = 20 µM, isolate 3, technical replicates (Fig. 6C)

Chain of PvNMT (A5K1A2 entry or part of it): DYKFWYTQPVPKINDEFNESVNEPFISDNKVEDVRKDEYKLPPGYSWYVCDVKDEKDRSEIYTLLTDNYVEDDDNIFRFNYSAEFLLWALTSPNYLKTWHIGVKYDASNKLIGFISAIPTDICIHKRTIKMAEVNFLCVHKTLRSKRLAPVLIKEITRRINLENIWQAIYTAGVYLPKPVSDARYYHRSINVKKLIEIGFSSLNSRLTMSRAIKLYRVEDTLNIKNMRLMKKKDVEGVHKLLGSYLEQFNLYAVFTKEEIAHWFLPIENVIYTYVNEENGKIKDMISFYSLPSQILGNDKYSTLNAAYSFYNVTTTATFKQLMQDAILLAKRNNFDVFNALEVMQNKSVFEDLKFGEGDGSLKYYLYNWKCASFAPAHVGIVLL

Row | SMILES | Percentage of live HepG2 cells compared with diluent controls (HepG2 cells; 1 μM) | Percentage of live HepG2 cells compared with diluent controls (HepG2 cells; 2.5 μM) | Percentage of live HepG2 cells compared with diluent controls (HepG2 cells; 5 μM) | Percentage of live HepG2 cells compared with diluent controls (HepG2 cells; 10 μM) | Percentage of live HepG2 cells compared with diluent controls (HepG2 cells; 20 μM) | pIC50 (PvNMT) | Number of liverstage Schizonts per well (P. vivax schizonts; [1]) | Number of liverstage Schizonts per well (P. vivax schizonts; [2]) | Number of liverstage Schizonts per well (P. vivax schizonts; [3]) | Schizonts per well (P. vivax schizonts; Isolate 2, 1.25 uM) | Schizonts per well (P. vivax schizonts; Isolate 2, 5 uM) | Schizonts per well (P. vivax schizonts; Isolate 3, 1.25 uM) | Schizonts per well (P. vivax schizonts; Isolate 3, 2.5 uM) | Schizonts per well (P. vivax schizonts; Isolate 3, 5 uM) | pIC50 (P. vivax schizonts) | Hypnozoites per well (P. vivax hypnozoites; 1.25 uM) | Hypnozoites per well (P. vivax hypnozoites; 2.5 uM) | Hypnozoites per well (P. vivax hypnozoites; 5 uM) | Hypnozoites per well (P. vivax hypnozoites; 10 uM) | Number of liverstage hypnozoites per well (P. vivax hypnozoites; [4]) | also measured
1 | Cc1nn(C)c(C)c1CCOc1cccnc1-c1ccnc(N2CCNCC2)c1 [Compound 12a] | 103.266% and 104.098% | 103.396% and 103.37% | 103.812% and 94.3274% | 93.0541% and 92.1966% | 80.685% and 80.1653% | 7.43 | 5 per well and 3 per well and 1 per well | 1 per well and 0 per well and 3 per well | 2 per well and 6 per well | 12 per well and 16 per well and 11 per well | 8 per well and 10 per well and 7 per well | 12 per well and 15 per well | 12 per well and 9 per well | 7 per well and 5 per well | 5.42 to 5.52 | 12 and 10 and 8 | 8 and 7 and 13 | 6 and 8 and 7 | 1 and 3 and 0 | 8 per well (2×) and 0 per well | SI (PvNMT): 146.7; schizonts (fold change to DMSO) mean diff (P. vivax schizonts; isolate 1, 20 µM): 0.850; schizonts (fold change to DMSO) mean diff (P. vivax schizonts; isolate 2, 20 µM): 0.9245; schizonts (fold change to DMSO) mean diff (P. vivax schizonts; isolate 3, 20 µM): 0.7273; Number of liverstage hypnozoites per well (P. vivax hypnozoites; [5]): 0 per well (2×) and 3 per well; Number of liverstage hypnozoites per well (P. vivax hypnozoites; [6]): 0 per well; Hypnozoites per well (P. vivax hypnozoites; 20 uM): 0 (2×) and 3; pIC50 (P. vivax hypnozoites; Plasmodium vivax): 5.24; hypnozoites (fold change to DMSO) mean diff (P. vivax hypnozoites; isolate 1, 20 µM): 0.754; hypnozoites (fold change to DMSO) mean diff (P. vivax hypnozoites; isolate 2, 20 µM): 0.897; pIC50 (HsNMT1): 5.27
2 | Cc1nn(C)c(C)c1CCOc1cccnc1-c1cccc(N2CCNCC2)c1 [Compound 12b] | 108.074% and 106.671% | 106.359% and 104.514% | 106.385% and 94.2234% | 92.0406% and 101.317% | 83.7772% and 84.1151% | 7.10 | 1 per well and 2 per well and 0 per well | 2 per well (2×) and 4 per well | 1 per well and 2 per well | 12 per well and 11 per well and 9 per well | 8 per well and 7 per well and 5 per well | 11 per well and 15 per well | 9 per well and 11 per well | 8 per well and 10 per well | 5.34 to 5.64 | 3 and 4 (2×) | 3 and 4 (2×) | 2 (2×) and 3 | 1 (2×) and 0 | 5 per well and 9 per well and 0 per well | SI (PvNMT): > 145 and > 150 and > 250; Schizonts per well (P. vivax schizonts; Isolate 2, 2.5 uM): 11 per well and 7 per well and 10 per well; Schizonts per well (P. vivax schizonts; Isolate 2, 10 uM): 2 per well and 4 per well; Schizonts per well (P. vivax schizonts; Isolate 3, 10 uM): 4 per well and 3 per well; Schizonts per well (P. vivax schizonts; Isolate 3, 20 uM (Fig. 5c-d)): 1 per well and 2 per well; Number of liverstage hypnozoites per well (P. vivax hypnozoites; [5]): 1 per well and 0 per well (2×); Number of liverstage hypnozoites per well (P. vivax hypnozoites; [6]): 0 per well; Hypnozoites per well (P. vivax hypnozoites; 20 uM): 1 and 0 (2×); pIC50 (P. vivax hypnozoites; Plasmodium vivax): 5.77; pIC50 (HsNMT1): 4.68
3 | c1cncc(CCOc2ccc3ccccc3c2-c2ccnc(N3CCNCC3)c2)c1 [Compound 30c] | 102.591% and 103.526% | 103.812% and 93.9636% | 93.7037% and 93.0801% | 92.5344% and 91.9887% | 79.2818% and 86.3846% | 6.61 | 0 per well (2×) and 6 per well | 3 per well and 4 per well and 6 per well | 1 per well and 3 per well | 12 per well and 14 per well and 13 per well | 7 per well and 10 per well and 9 per well | 13 per well and 10 per well | 12 per well and 9 per well | 7 per well and 10 per well | 5.31 to 5.57 | 8 and 15 and 7 | 5 and 6 and 12 | 0 and 5 and 13 | 5 and 0 and 4 | 0 per well and 1 per well and 4 per well | Schizonts per well (P. vivax schizonts; Isolate 2, 2.5 uM): 9 per well and 14 per well and 11 per well; Schizonts per well (P. vivax schizonts; Isolate 2, 10 uM): 4 per well and 5 per well and 6 per well; Schizonts per well (P. vivax schizonts; Isolate 2, 20 uM (Fig. 5c-d)): 3 per well and 4 per well and 6 per well; schizonts (fold change to DMSO) mean diff (P. vivax schizonts; isolate 1, 20 µM): 0.900; schizonts (fold change to DMSO) mean diff (P. vivax schizonts; isolate 2, 20 µM): 0.7547; schizonts (fold change to DMSO) mean diff (P. vivax schizonts; isolate 3, 20 µM): 0.8636; Number of liverstage hypnozoites per well (P. vivax hypnozoites; [5]): 4 per well (2×) and 1 per well; Number of liverstage hypnozoites per well (P. vivax hypnozoites; [6]): 0 per well; Hypnozoites per well (P. vivax hypnozoites; 20 uM): 4 (2×) and 1; pIC50 (P. vivax hypnozoites; Plasmodium vivax): 5.42; inhibition at 20 µM (P. vivax hypnozoites; Plasmodium vivax, 20 µM): > 75%; hypnozoites (fold change to DMSO) mean diff (P. vivax hypnozoites; isolate 1, 20 µM): 0.939; hypnozoites (fold change to DMSO) mean diff (P. vivax hypnozoites; isolate 2, 20 µM): 0.690
